Experimental data: US20250250231A1, “NOVEL SUBSTITUTED 4-AMINO-4-OXO-BUT-2-ENYL DERIVATIVES, PROCESSES FOR THEIR PREPARATION AND THERAPEUTIC USES THEREOF” (SANOFI, priority 2022, published 2025)

Key:
Assay type in all cases: cell-based
MCF7-WT cells = test: In vitro anti-proliferation assay (CellTiter-Glo viability), MCF7-WT cells; settings: Homo sapiens, MCF7, 192 h, MCF7-WT cells supplemented with 0.1 nM b-estradiol; viability on day 8; relative IC50
Protocol: (§1) Test: In vitro anti-proliferation assay
(§2) Said test involves measuring the in vitro anti-proliferation activity of the compounds of the Table 1a.
(§3) The measurements of the anti-proliferation activities were made using MCF7-WT (ATCC), MCF7-Y537S and HCC1428-LTED cells as described hereunder.
(§4) On Day 1, MCF7-WT and MCF7-Y537S (Mol Cancer Ther. 2021 20(2):250-262), and HCC1428-LTED (J Clin Invest. 2010; 120(7):2406-2413) cells, were seeded at 2000 (WT and LTED) and 500 (Y537S) cells/well in phenol red free IMEM (Corning, 110-026-CV) with 5% Charcoal stripped-FBS and incubated overnight 37° C. and 5% CO2.
(§5) On day 2, compounds were tested in triplicate in 10-point dose response (1:3 serial dilutions with a top concentration starting 300 nM); DMSO for upper limit (negative control) and staurosporine (1 uM) for lower limit (positive control) were also included. MCF7-WT cells were then supplemented with final 0.1 nM b-estradiol. After treating the cells, the assay plates were transferred back in the incubator at 37° C. and 5% CO2.
(§6) On day 8, cell viability was measured per vendor recommendations (CellTiter-Glo, Promega). Relative IC50 measurements were calculated as follow using a 4-parameter logistic derived from Levenburg Marquardt algorithm (IDBS XL Model 205 fit within A-base).

MCF7-Y537S cells = test: In vitro anti-proliferation assay (CellTiter-Glo viability), MCF7-Y537S cells; settings: Homo sapiens, MCF7, 192 h, viability on day 8, relative IC50
Protocol: as §1, §2, §3, §4, §5, §6

HCC1428-LTED cells = test: In vitro anti-proliferation assay (CellTiter-Glo viability), HCC1428-LTED cells; settings: Homo sapiens, HCC1428, 192 h, viability on day 8, relative IC50, read-out: HCC 1428 IC50
Protocol: as §1, §2, §3, §4, §5, §6

Row | SMILES | IC50 (MCF7-WT cells) | IC50 (MCF7-Y537S cells) | IC50 (HCC1428-LTED cells)
1 | CN(C)C(=O)/C=C/CN1CC/C(=C/c2ccc(C3=C(c4ccc(Cl)cc4Cl)CCCc4cc(C(=O)O)ccc43)cc2)C1 [Compound 20, 8-(2,4-dichlorophenyl)-9-(4-((Z)-(1-((E)-4-(dimethylamino)-4-oxobut-2-en-1-yl)pyrrolidin-3-ylidene)methyl)phenyl)-6,7-dihydro-5H-benzo[7]annulene-3-carboxylic acid] | 41 nM | ≥ 500 nM | 1 nM
2 | CN(C)C(=O)/C=C/CN1CC(Nc2ccc(C3=C(c4ccc(Cl)cc4Cl)CCCc4cc(C(=O)O)ccc43)cc2)C1 [Compound 21, (E)-8-(2,4-dichlorophenyl)-9-(4-((1-(4-(dimethylamino)-4-oxobut-2-en-1-yl)azetidin-3-yl)amino)phenyl)-6,7-dihydro-5H-benzo[7]annulene-3-carboxylic acid] | 28 nM | ≥ 500 nM | 2.1 nM
3 | CN(C)C(=O)/C=C/CN1CC[C@H](Oc2ccc(C3=C(c4ccc(Cl)cc4Cl)CCCc4cc(O)ccc43)cc2)C1 [Compound 23, (S,E)-4-(3-(4-(8-(2,4-dichlorophenyl)-3-hydroxy-6,7-dihydro-5H-benzo[7]annulen-9-yl)phenoxy)pyrrolidin-1-yl)-N,N-dimethylbut-2-enamide] | 26 nM | 23 nM | 0.03 nM
4 | CN(C)C(=O)/C=C/CN1CC[C@H](Oc2ccc(C3=C(c4ccc(Cl)cc4Cl)CCOc4cc(C(=O)O)ccc43)cc2)C1 [Compound 24, (S,E)-4-(2,4-dichlorophenyl)-5-(4-((1-(4-(dimethylamino)-4-oxobut-2-en-1-yl)pyrrolidin-3-yl)oxy)phenyl)-2,3-dihydrobenzo[b]oxepine-8-carboxylic acid] | 160 nM | ≥ 500 nM | 4.4 nM
5 | CN(C)C(=O)/C=C/CN1CC[C@H](Oc2ccc(C3=C(c4ccc(Cl)cc4Cl)CCc4cc(C(=O)O)ccc43)cc2)C1 [Compound 25, (S,E)-6-(2,4-dichlorophenyl)-5-(4-((1-(4-(dimethylamino)-4-oxobut-2-en-1-yl)pyrrolidin-3-yl)oxy)phenyl)-7,8-dihydronaphthalene-2-carboxylic acid] | 300 nM | ≥ 500 nM | 17 nM

The next molecules have a lower IC50 (MCF7-WT cells) than those just listed; values first:

Row | IC50 (MCF7-WT cells) | IC50 (MCF7-Y537S cells) | IC50 (HCC1428-LTED cells) | SMILES
6 | 21 nM | 193 nM | 0.4 nM | CN(C)C(=O)/C=C/CN1CC[C@H](Oc2ccc(C3=C(c4ccc(Cl)cc4Cl)CCCc4ccccc43)cc2)C1 [Compound 26, (S,E)-4-(3-(4-(8-(2,4-dichlorophenyl)-6,7-dihydro-5H-benzo[7]annulen-9-yl)phenoxy)pyrrolidin-1-yl)-N,N-dimethylbut-2-enamide]
7 | 11 nM | 184 nM | 0.6 nM | CN(C)C(=O)/C=C/CNCCOc1ccc(C2=C(c3ccc(Cl)cc3Cl)CCCc3cc(C(=O)O)ccc32)cc1 [Compound 22, (E)-8-(2,4-dichlorophenyl)-9-(4-(2-((4-(dimethylamino)-4-oxobut-2-en-1-yl)amino)ethoxy)phenyl)-6,7-dihydro-5H-benzo[7]annulene-3-carboxylic acid]
8 | 2.9 nM | 33 nM | 0.02 nM | CN(C)C(=O)/C=C/CN1CC[C@H](Oc2ccc(C3=C(c4ccc(Cl)cc4Cl)CCSc4cc(O)ccc43)cc2)C1 [Compound 27, (S,E)-4-(3-(4-(4-(2,4-dichlorophenyl)-8-hydroxy-2,3-dihydrobenzo[b]thiepin-5-yl)phenoxy)pyrrolidin-1-yl)-N,N-dimethylbut-2-enamide]
